We go through one compound from US9132140B2, “Boronic acid derivatives and therapeutic uses thereof” (Rempex Pharmaceuticals, Inc., priority 2013, dated 2015).

What all share (format): cell-based, Klebsiella pneumoniae
For test [1], the system named is KPM1108 (NDM, KPC). The text has this:
(§1) Several strains simultaneously expressing both class A and class B carbapenemases, which were constructed using conjugation, were also included in the panel.

Test [2] concerns KPM1110 (NDM, KPC).
Source text: as §1

The subject of test [3] is KP1098 (IMP-26 TEM SHV).
Source text: as §1

Test [4] deals with KPM1346 (NDM-1 TEM SHV CTX-M-15 CMY).
Source text: as §1

Test [5] deals with KPM1109 (NDM, KPC).
Source text: as §1

For test [6], the system named is KP1054 (VIM-1, SHV-11).
Source text: as §1

Test [7] relates to KPM1107 (NDM, KPC).
Source text: as §1

Test [8] deals with KPM1347 (NDM-1 SHV CTX-M-15).
Source text: as §1

The subject of test [9] is KP1097 (IMP-1 SHV).
Source text: as §1

Test [10] concerns KPM1344 (VIM-1).
Source text: as §1

Test [11] has as its system KP1059 (VIM-1, SHV-11).
Source text: as §1

For test [12], the system named is KPM1122 (NDM, VIM).
Source text: as §1

Test [13] concerns KPM1123 (KPC-2 TEM SHV).
Source text: as §1

Test [14] concerns KPM1345 (VIM-1 SHV).
Source text: as §1

Test [15] has as its system KP1084 (KPC-3, SHV-11, TEM-1).
Source text: as §1

Test [16] has as its system KP1064 (KPC TEM SHV).
Source text: as §1

In test [17] the test system is KP1070 (KPC TEM SHV).
Source text: as §1

Test [18] relates to KP1014 (Vim-1, TEM, SHV).
Source text: as §1

Test [19] concerns KP1061 (KPC TEM SHV).
Source text: as §1

Test [20] concerns KPM1099 (NDM, KPC).
Source text: as §1

For test [21], the system named is KP1004 (KPC TEM SHV).
Source text: as §1

Test [22] relates to KP1081 (NDM-1, TEM-1, SHV-11, CMY-6, CTX-M-15).
Source text: as §1

Test [23] deals with KP1065 (VIM-1, SHV-11).
Source text: as §1

The structures appear in SMILES notation.

On to `C[C@@H](O)[C@H]1C(=O)N2C(C(=O)O)=C(SCCN=CN)C[C@H]12` [Imipenem, reference compound], for which the “Carbapenem MIC alone” value in test [1] is given as “Z (key: X: MIC of less than 1 μg/mL; Y: MIC of 1 μg/mL to 10 μg/mL; Z: MIC of greater than 10 μg/mL)”; in test [2], “Z (key: X: MIC of less than 1 μg/mL; Y: MIC of 1 μg/mL to 10 μg/mL; Z: MIC of greater than 10 μg/mL)”; in test [3], “Y (key: X: MIC of less than 1 μg/mL; Y: MIC of 1 μg/mL to 10 μg/mL; Z: MIC of greater than 10 μg/mL)”; in test [4] it was “Z (key: X: MIC of less than 1 μg/mL; Y: MIC of 1 μg/mL to 10 μg/mL; Z: MIC of greater than 10 μg/mL)”; in [5], “Z (key: X: MIC of less than 1 μg/mL; Y: MIC of 1 μg/mL to 10 μg/mL; Z: MIC of greater than 10 μg/mL)”; in test [6], “Y (key: X: MIC of less than 1 μg/mL; Y: MIC of 1 μg/mL to 10 μg/mL; Z: MIC of greater than 10 μg/mL)”. The “Carbapenem MIC alone” value in test [7] is “Z (key: X: MIC of less than 1 μg/mL; Y: MIC of 1 μg/mL to 10 μg/mL; Z: MIC of greater than 10 μg/mL)”; in test [8], “Z (key: X: MIC of less than 1 μg/mL; Y: MIC of 1 μg/mL to 10 μg/mL; Z: MIC of greater than 10 μg/mL)”; in [9], “Y (key: X: MIC of less than 1 μg/mL; Y: MIC of 1 μg/mL to 10 μg/mL; Z: MIC of greater than 10 μg/mL)”; in [10], “Z (key: X: MIC of less than 1 μg/mL; Y: MIC of 1 μg/mL to 10 μg/mL; Z: MIC of greater than 10 μg/mL)”; in test [11] it was “Z (key: X: MIC of less than 1 μg/mL; Y: MIC of 1 μg/mL to 10 μg/mL; Z: MIC of greater than 10 μg/mL)”; in [12], “Z (key: X: MIC of less than 1 μg/mL; Y: MIC of 1 μg/mL to 10 μg/mL; Z: MIC of greater than 10 μg/mL)”. Besides, the “Carbapenem MIC alone” value in test [13] is listed as “Z (key: X: MIC of less than 1 μg/mL; Y: MIC of 1 μg/mL to 10 μg/mL; Z: MIC of greater than 10 μg/mL)”; in [14], “Y (key: X: MIC of less than 1 μg/mL; Y: MIC of 1 μg/mL to 10 μg/mL; Z: MIC of greater than 10 μg/mL)”; in test [15], “Z (key: X: MIC of less than 1 μg/mL; Y: MIC of 1 μg/mL to 10 μg/mL; Z: MIC of greater than 10 μg/mL)”; in test [16], “Z (key: X: MIC of less than 1 μg/mL; Y: MIC of 1 μg/mL to 10 μg/mL; Z: MIC of greater than 10 μg/mL)”; in test [17], “Z (key: X: MIC of less than 1 μg/mL; Y: MIC of 1 μg/mL to 10 μg/mL; Z: MIC of greater than 10 μg/mL)”; in test [18], “Z (key: X: MIC of less than 1 μg/mL; Y: MIC of 1 μg/mL to 10 μg/mL; Z: MIC of greater than 10 μg/mL)”. Besides, the “Carbapenem MIC alone” value was “Z (key: X: MIC of less than 1 μg/mL; Y: MIC of 1 μg/mL to 10 μg/mL; Z: MIC of greater than 10 μg/mL)” in [19]; “Z (key: X: MIC of less than 1 μg/mL; Y: MIC of 1 μg/mL to 10 μg/mL; Z: MIC of greater than 10 μg/mL)” in test [20]; “Z (key: X: MIC of less than 1 μg/mL; Y: MIC of 1 μg/mL to 10 μg/mL; Z: MIC of greater than 10 μg/mL)” in test [21]; “Z (key: X: MIC of less than 1 μg/mL; Y: MIC of 1 μg/mL to 10 μg/mL; Z: MIC of greater than 10 μg/mL)” in test [22]; “Y (key: X: MIC of less than 1 μg/mL; Y: MIC of 1 μg/mL to 10 μg/mL; Z: MIC of greater than 10 μg/mL)” in [23].
